Results from US20250387458A1, “COACTIVE COMBINATIONS OF ANTIMICROBIALS WITH DISPERSINB” (KANE BIOTECH INC., priority 2020, published 2025).
Entries after “also recorded” stand apart in the source; their conditions may differ. Where a name gives a salt, the structure may show the parent alone. Positions of bridges follow the written chain, without caps; N, C: chain ends. Non-standard residues stand in square brackets, D forms with d. Residues, ends and D or L forms follow the SMILES beside them. ξ: configuration not given here. *: point of attachment. X1 = CC[C@H](C)CCCCC(=O)*; dDab = NCC[C@@H](N)C(=O)O; Dab = NCC[C@H](N)C(=O)O; ξDab = NCCC(N)C(=O)O

How the values were obtained:
S. epidermidis biofilm [1] = test: Inactivation of biofilm embedded bacteria using liquid buffer formulation (Method 1), S. epidermidis; assay type: cell-based, Staphylococcus epidermidis; details: for Biofilm inactivation: buffer formulation, antimicrobial tested with DspB; for Effect of DspB on activity of the antimicrobial against biofilm embedded S. epidermidis: buffer, antimicrobial plus DspB vs antimicrobial alone, P<0.05
Method: (§1) Method 1: Method to Test Inactivation of Biofilm Embedded Bacteria Using Liquid Buffer Formulation
(§2) S. epidermidis or E. coli biofilm were each grown in 96-well plate and washed three times to remove planktonic cells. Then biofilm was treated using 50 mM phosphate or citrate buffer, (no treatment control), buffer solutions containing DspB at 10-200 μg/ml, buffer solution containing antimicrobial alone, and buffer solution DspB plus antimicrobial for varying exposure times (10 min-3 h). After treatments, biofilm embedded bacteria was dispersed, diluted serially and plated on Tryptic soy agar plates. Data was analyzed using ANOVA and Tukey's test.

DspB [2] = test: Compatibility between antimicrobials or antibiotics and DspB, enzymatic assay in buffer (Method 4); assay type: biochemical, Aggregatibacter actinomycetemcomitans
Method: Method 4: Method to Test Compatibility Between Antimicrobials or Antibiotics and DspB Using Enzymatic Assay
DspB (200 μg/mL) and antimicrobial agent/antibiotic stocks were prepared in respective buffers. 10 mM paranitrophenol (PNP) in 400 mM sodium carbonate, and the buffer (same DspB stock) was used as the standard solution, and negative control, respectively. DspB stock and antimicrobial stock were mixed in equal proportions, and then 4×5 μl samples were taken at defined time points (0, 5, 10, 20, 30, 60, and 120 min) and used to measure the DspB enzyme activity. DspB enzymatic activity was measured using β-N-Acetylglucosaminidase assay kit from Sigma (product code CS0780) in 96-well microtiter plate following the manufacturer's instructions. The plate was incubated for 30 minutes before terminating the reaction. Data analysis was done in Excel. Student T test (paired) was performed for each time point separately using DspB activity in mixture and in control sample as two set of variables.

S. epidermidis biofilm [3] = test: Compatibility between antimicrobials or antibiotics and DspB, biofilm dispersal assay in buffer (Method 3); assay type: cell-based, Staphylococcus epidermidis; details: for Biofilm dispersal when DspB and antimicrobial were added together: 20 μg/ml DspB, mixture used at 0 and 2 h, 10 min treatment
Method: Method 3: Method to Test Compatibility Between Antimicrobials or Antibiotics and DspB Using Biofilm Dispersal Assay
S. epidermidis biofilm was grown in 96-well plate and washed three times using sterile water to remove planktonic cells. Antimicrobials or antibiotics and DspB formulations were prepared in 50 mM phosphate or citrate buffer and stored at 37° C. for 2 h and used for treating biofilm at 0 and 2 h. Biofilm was treated using antimicrobials or antibiotics and DspB formulations for 10 min. After treatments, solutions were removed and washed 3 times to remove dispersed biofilm. Remaining biofilms in 96-well plates were stained using Crystal violet, unbound crystal violet was removed by washing the wells with sterile water, the biofilm bound crystal violet was eluted using 33% acetic acid, and the absorbance at 620 nm was taken using a microwell plate reader. Percent biofilm removal was calculated. Data was analyzed using ANOVA and Tukey's test.

S. epidermidis biofilm [4] = test: Biofilm dispersal by DspB gel formulations (Method 5); assay type: cell-based, Staphylococcus epidermidis; details: for Biofilm dispersal of gel containing DspB and antimicrobial compared with gel containing DspB alone: PF127 gel, 20 μg/ml DspB
Method: Method 5: Method to Test Biofilm Dispersal by DspB Gel Formulations
S. epidermidis biofilm was grown in 96-well plate and washed three times to remove planktonic cells. Then biofilm was treated using different DspB formulations appropriate treatment duration (10 min-1 h). After treatments, gels were removed and washed 3 times with sterile distilled water to remove excess gel and dispersed biofilm. Remaining biofilms in 96-well plates were stained using Crystal violet and unbound crystal violet was removed by washing the wells with sterile water, the biofilm bound crystal violet was eluted using 33% acetic acid, and the absorbance at 620 nm was taken using a microwell plate reader.
Gels containing DspB and selected concentrations of antimicrobials were formulated in 50 mM phosphate buffer or citrate buffer containing 16% PF127. DspB gel and antimicrobial gel were mixed together and incubated at 37° C. for 2 h. Biofilm dispersal was performed at 0 and 2 h using biofilm dispersal assay (Method 5). Blank gel, DspB gel and antimicrobial gels were included as controls.

DspB [5] = test: Compatibility between antimicrobials or antibiotics and DspB in gel, enzymatic assay (Method 6); assay type: biochemical, Aggregatibacter actinomycetemcomitans; details: for Enzymatic activity of DspB in the presence of the antimicrobial compared with DspB control: P≤0.05, carvacrol and cinnamaldehyde at 0-30 min, chloroxylenol at 5, 10, 20 and 60 min
Method: Method 6: Method to Test Compatibility Between Antimicrobials or Antibiotics and DspB in Gel Using Enzymatic Assay
DspB gel containing 200 μg/ml DspB, 16% […] (PF127), 50 mM Phosphate buffer or citrate, 100 mM NaCl, pH 5.9, and 2× concentrated antimicrobial agent/antibiotics in 16% Poloxamer 405, 50 mM Phosphate buffer, 100 mM NaCl, pH 5.9 were mixed in equal proportions. 4×5 μL aliquots were withdrawn at 0, 5, 10, 20, 30, 60, and 120 min for measurement of DspB enzymatic activity. DspB enzymatic activity was measured using β-N-acetylglucosaminidase assay kit from Sigma (product code CS0780) in 96-well microtiter plate following the manufacturer's instructions. The plate was incubated for 30 minutes before terminating the reaction. Data analysis was done in Excel. Student T test (paired) was performed for each time point separately using DspB activity in mixture and in control sample as two set of variables. […]

E. coli biofilm = test: Inactivation of biofilm embedded bacteria using liquid buffer formulation (Method 1), E. coli; assay type: cell-based, Escherichia coli; details: antimicrobial plus DspB vs antimicrobial alone
Method: as §1, §2

[6] = gel formulation, 100 μg/ml DspB

## CCCCC(CC)CNC(=N)NC(=N)NCCCCCCNC(=N)NC(=N)NCC(CC)CCCC (centres unmarked) [Alexidine, Alexidine dihydrochloride]
S. epidermidis biofilm [1]
  Biofilm inactivation: >5 log log CFU
  Effect of DspB on activity of the antimicrobial against biofilm embedded S. epidermidis: enhanced

## COc1ccc2cc3[n+](cc2c1OC)CCc1cc2c(cc1-3)OCO2 [Berberine hydrochloride]
S. epidermidis biofilm [1]; hydrochloride
  Effect of DspB on activity of the antimicrobial against biofilm embedded S. epidermidis: no synergistic activity
S. epidermidis biofilm [1]; listed as berberine hydrochloride, hydrochloride
  Effect of DspB on activity of the antimicrobial against biofilm embedded S. epidermidis: did not enhance activity; also recorded: antagonism

## Cc1ccc(C(C)C)cc1O [Carvacrol]
DspB [2]
  Synergy or compatibility with DspB, E: enzymatic: E: synergy
S. epidermidis biofilm [3]; buffer
  Biofilm dispersal when DspB and antimicrobial were added together: ≥ 73%
S. epidermidis biofilm [4]
  Synergy or compatibility with DspB, M: microbiological (biofilm dispersal assay; biofilm inactivation not tested): M: compatible
  Biofilm dispersal of gel containing DspB and antimicrobial compared with gel containing DspB alone: similar
DspB [5]
  Synergy or compatibility with DspB, E: enzymatic: E: synergy
DspB [5]; wound gel
  Enzymatic activity of DspB in the presence of the antimicrobial compared with DspB control: Higher enzymatic activity
E. coli biofilm; P<0.05
  Effect of DspB on activity of the antimicrobial against biofilm embedded E. coli: enhanced
S. epidermidis biofilm [1]
  Biofilm inactivation: >5 log log CFU
  Effect of DspB on activity of the antimicrobial against biofilm embedded S. epidermidis: enhanced

## CCCCCCCCCCCCCCCC[n+]1ccccc1.[Cl-] [Cetylpyridinium chloride]
DspB [2]
  Synergy or compatibility with DspB, E: enzymatic: E: no synergy
DspB [5]
  Synergy or compatibility with DspB, E: enzymatic: E: compatible

## Cc1cc(O)cc(C)c1Cl [Chloroxylenol]
S. epidermidis biofilm [3]; buffer
  Biofilm dispersal when DspB and antimicrobial were added together: ≥ 74%
S. epidermidis biofilm [1]
  Biofilm inactivation: >5 log log CFU

## O=C/C=C/c1ccccc1 [Cinnamaldehyde]
S. epidermidis biofilm [3]; buffer
  Biofilm dispersal when DspB and antimicrobial were added together: ≥ 78%
S. epidermidis biofilm [4]
  Biofilm dispersal of gel containing DspB and antimicrobial compared with gel containing DspB alone: similar
DspB [5]; [6]
  Synergy or compatibility with DspB, E: enzymatic: E: synergy
DspB [5]; wound gel
  Enzymatic activity of DspB in the presence of the antimicrobial compared with DspB control: Higher enzymatic activity
E. coli biofilm; P<0.05
  Effect of DspB on activity of the antimicrobial against biofilm embedded E. coli: enhanced
S. epidermidis biofilm [1]
  Effect of DspB on activity of the antimicrobial against biofilm embedded S. epidermidis: enhanced

## O=C(O)C=Cc1ccccc1 [Cinnamic acid]
S. epidermidis biofilm [1]
  Biofilm inactivation: <0.5 log log CFU
  Effect of DspB on activity of the antimicrobial against biofilm embedded S. epidermidis: did not show any enhancement

## CNC1C(O)[C@@H](O[C@H]2C(N)C[C@H](N)C(O[C@H]3OC([C@@H](C)N)CCC3N)C2O)OC[C@]1(C)O (some centres unmarked) [Gentamicin sulfate]
S. epidermidis biofilm [4]
  Biofilm dispersal of gel containing DspB and antimicrobial compared with gel containing DspB alone: similar
DspB [5]; [6]
  Synergy or compatibility with DspB, E: enzymatic: E: compatible

## CC(=O)CC/C=C(\C)CCC=C(C)C [Geranyl acetone]
S. epidermidis biofilm [1]
  Biofilm inactivation: <0.5 log log CFU

## Cc1ncc([N+](=O)[O-])n1CCO [Metronidazole]
S. epidermidis biofilm [4]
  Biofilm dispersal of gel containing DspB and antimicrobial compared with gel containing DspB alone: similar
DspB [5]; [6]
  Synergy or compatibility with DspB, E: enzymatic: E: compatible

## C/C(=C\C(=O)OCCCCCCCCC(=O)O)C[C@@H]1OC[C@H](C[C@@H]2O[C@H]2[C@@H](C)[C@H](C)O)[C@@H](O)[C@H]1O [Mupirocin]
DspB [5]; [6]
  Synergy or compatibility with DspB, E: enzymatic: E: synergy
DspB [5]; wound gel, for up to 2 h, relative to 100 μg/mL DspB control
  DspB activity in the presence of the antimicrobial, enzymatic assay: > 100%

## CC(C)=CCC/C(C)=C\CO [Nerol]
S. epidermidis biofilm [1]
  Biofilm inactivation: <0.5 log log CFU

## C=CC(C)(O)CCC=C(C)CCC=C(C)C (centres unmarked) [Nerolidol]
S. epidermidis biofilm [1]
  Biofilm inactivation: <0.5 log log CFU

## CCCCCCCCN=c1ccn(CCCCCCCCCCn2ccc(=NCCCCCCCC)cc2)cc1.Cl.Cl [Octenidine dihydrochloride, octenidine dihydrochloride]
S. epidermidis biofilm [3]; biofilms treated for 10 min, data not presented
  Biofilm dispersal when 20 μg/ml DspB was mixed with the antimicrobial: no biofilm dispersal was observed
S. epidermidis biofilm [3]; buffer, 100 μg/ml DspB, 0.01% ODC
  Biofilm dispersal when DspB and antimicrobial were added together for 2 h: minimal biofilm dispersal
S. epidermidis biofilm [4]
  Biofilm dispersal of gel containing DspB and antimicrobial compared with gel containing DspB alone: similar
DspB [5]; [6]
  Synergy or compatibility with DspB, E: enzymatic: E: compatible
E. coli biofilm; P<0.05, dihydrochloride
  Effect of DspB on activity of the antimicrobial against biofilm embedded E. coli: enhanced activity
E. coli biofilm; P<0.05, listed as ODC, dihydrochloride
  Effect of DspB on activity of the antimicrobial against biofilm embedded E. coli: enhanced
S. epidermidis biofilm [1]
  Biofilm inactivation: >5 log log CFU
S. epidermidis biofilm [1]; dihydrochloride
  Effect of DspB on activity of the antimicrobial against biofilm embedded S. epidermidis: enhanced activity
S. epidermidis biofilm [1]; listed as ODC, dihydrochloride
  Effect of DspB on activity of the antimicrobial against biofilm embedded S. epidermidis: enhanced

## CC[C@H](C)CCCCC(=O)N[C@@H](CCN)C(=O)N[C@H](C(=O)NC(CCN)C(=O)N[C@H]1CCNC(=O)[C@H]([C@@H](C)O)NC(=O)[C@H](CCN)NC(=O)[C@H](CCN)NC(=O)[C@H](CC(C)C)NC(=O)[C@@H](Cc2ccccc2)NC(=O)[C@@H](CCN)NC1=O)[C@@H](C)O (some centres unmarked) [Polymyxin B sulfate] (X1-[Dab]T[ξDab][Dab][dDab][dF]L[Dab][Dab]T; lactam 4-C)
S. epidermidis biofilm [4]
  Biofilm dispersal of gel containing DspB and antimicrobial compared with gel containing DspB alone: similar
DspB [5]; [6]
  Synergy or compatibility with DspB, E: enzymatic: E: compatible

## Cc1ccc(C(C)C)c(O)c1 [Thymol]
S. epidermidis biofilm [1]
  Biofilm inactivation: >5 log log CFU
  Effect of DspB on activity of the antimicrobial against biofilm embedded S. epidermidis: enhanced

## Benzalkonium chloride
DspB [2]
  Synergy or compatibility with DspB, E: enzymatic: E: no synergy
S. epidermidis biofilm [3]
  Synergy or compatibility with DspB, M: microbiological (biofilm dispersal assay; biofilm inactivation not tested): M: no synergy
S. epidermidis biofilm [4]
  Synergy or compatibility with DspB, M: microbiological (biofilm dispersal assay; biofilm inactivation not tested): M: compatible
DspB [5]
  Synergy or compatibility with DspB, E: enzymatic: E: compatible

## BisEDT
S. epidermidis biofilm [1]
  Biofilm inactivation: <1 log log CFU

## Nisin
S. epidermidis biofilm [1]
  Biofilm inactivation: <0.5 log log CFU
